From patent US10000471B2, “Pyrazole P38 map kinase inhibitors” (Respivert Limited, priority 2010, dated 2018) come the findings set out here.

Data set [1] deals with T1, p38 MAPKα isoform (MAPK14) (Homo sapiens, UniProt Q16539).
T1 construct: purchased Invitrogen
The experiment in a line: Enzyme inhibition assay (FRET, Z-LYTE), p38 MAPKα via MAPKAP-K2 activation. The format is biochemical. To be noted: read-out: Enzyme Inhibition IC50 p38α. How it is done:
(§1) The enzyme inhibitory activities of compounds disclosed herein were determined by fluorescence resonance energy transfer (FRET) using synthetic peptides labelled with both donor and acceptor fluorophores (Z-LYTE, Invitrogen Ltd., Paisley, UK). Recombinant, phosphorylated p38 MAPKγ (MAPK12:Invitrogen) was diluted in HEPES buffer, mixed with the test compound at the desired final concentrations and incubated for 2 hr at RT. The FRET peptide (2 μM) and ATP (100 μM) were added to the enzyme/compound mixture and incubated for 1 hr. Development reagent (protease) was added for 1 hr prior to detection in a fluorescence microplate reader (Varioskan® Flash, ThermoFisher Scientific). The site-specific protease cleaves non-phosphorylated peptide only and eliminates the FRET signal. Phosphorylation levels of each reaction were calculated using the ratio of coumarin emission (donor) over fluorescein emission (acceptor) for which high ratios indicate high phosphorylation and low ratios indicate low phosphorylation levels. The percentage inhibition of each reaction was calculated relative to non-inhibited control and the 50% inhibitory concentration (IC50 value) then calculated from the concentration-response curve.
For the p38 MAPKα isoform (MAPK14: Invitrogen), enzyme activity was evaluated indirectly by determining the level of activation/phosphorylation of the down-stream molecule, MAPKAP-K2. The p38 MAPKα protein was mixed with the test compound for 2 hr at RT. […] Development reagent was then added and the mixture incubated for 1 hr before detection by fluorescence completed the assay protocol.

Data set [2] deals with ICAM-1 induction in BEAS2B cells. The data set can be described thus: Poly I:C-induced ICAM-1 induction in BEAS2B cells. The format is cell-based, human. To be noted: Homo sapiens, BEAS-2B, read-out: PolyIC/ICAM1 IC50 BEAS2B. Here is the method:
Poly I:C-Induced ICAM-1 Induction in BEAS2B Cells
Poly I:C (1 μg/mL) (Invivogene Ltd., San Diego, Calif.) was transfected into BEAS2B cells (human bronchial epithelial cells, ATCC) with Oligofectamine (Invitrogen, Carlsbad, Calif.). Cells were pre-incubated with final concentrations of test compounds for 2 hr and the level of ICAM1 expression on the cell surface was determined by cell-based ELISA. At a time point 18 hr after poly I:C transfection, cells were fixed with 4% formaldehyde in PBS and then endogenous peroxidase was quenched by the addition of 0.1% sodium azide and 1% hydrogen peroxide. Cells were washed with wash-buffer (0.1% Tween in PBS: PBS-Tween). and after blocking the wells with 5% milk in PBS-Tween for 1 hr, the cells were incubated with anti-human ICAM-1 antibody (Cell Signaling Technology, Danvers, Mass.) in 1% BSA PBS overnight at 4° C. The cells were washed with PBS-Tween and incubated with the secondary antibody (HRP-conjugated anti-rabbit IgG, Dako Ltd., Glostrup, Denmark). The ICAM-1 signal was detected by adding substrate and reading the absorbance at 450 nm against a reference wavelength of 655 nm using a spectrophotometer. The cells were then washed with PBS-Tween and total cell numbers in each well were determined by reading absorbance at 595 nm after Crystal Violet staining and elution by 1% SDS solution. The measured OD 450-655 readings were corrected for cell number by dividing with the OD595 reading in each well. The inhibition of ICAM-1 expression was calculated at each concentration of test compound by comparison with vehicle control. The 50% inhibitory concentration (IC50) was determined from the resultant concentration-response curve.

The subject of data set [3] is TNFα release in THP-1 cells. The experiment in a line: LPS-induced TNFα release in THP-1 cells. Type of data set: cell-based, human. To be noted: Homo sapiens. Here is the method:
LPS-Induced TNFα Release in THP-1 Cells
THP-1 cells, a human monocytic cell line, were stimulated with 3 μg/mL of LPS (from E. Coli; 0111:B4, Sigma) for 4 hr and the supernatant collected for determination of the TNFα concentration by sandwich ELISA (Duo-set, R&D systems). The inhibition of TNFα production was calculated at each concentration by comparison with vehicle control. The 50% inhibitory concentration (IC50) was determined from the resultant concentration-response curve.

The subject of data set [4] is Differentiated U937 cells. The data set can be described thus: Cell viability MTT assay. To be noted: negative = apparent increase in viability; for MTT Assay (Viability) 4 h d-U937, percentage loss of cell viability: 4 hr in 5% FCS; for MTT Assay (Viability) 24 h d-U937, percentage loss of cell viability: 24 h in 10% FCS. The format is cell-based, human. Here is the method:
Differentiated U937 cells were pre-incubated with each test compound under two protocols: the first for 4 hr in 5% FCS and the second in 10% FCS for 24 h. The supernatant was replaced with 200 μL of new media and 10 μL of MTT stock solution (5 mg/mL) was added to each well. After incubation for 1 hr the media were removed, 200 μL of DMSO was added to each well and the plates were shaken lightly for 1 hr prior to reading the absorbance at 550 nm. The percentage loss of cell viability was calculated for each well relative to vehicle (0.5% DMSO) treatment. Consequently an apparent increase in cell viability for drug treatment relative to vehicle is tabulated as a negative percentage.
Background: Tetrazolium dyes change colour on reduction, which living cells bring about.

For data set [5], the system named is TNFα release in d-U937 cells. The data set can be described thus: LPS-induced TNFα release in d-U937 cells. Type of data set: cell-based, human. To be noted: Homo sapiens, dU937, relative to 10 μg/mL BIRB796, read-out: LPS/TNFα REC50 d-U937. How it is done: (§2) LPS-Induced TNFα/IL-8 Release in d-U937 Cells
(§3) U937 cells, a human monocytic cell line, were differentiated to macrophage-type cells by incubation with phorbol myristate acetate (PMA; 100 ng/ml) for 48 to 72 hr. Cells were pre-incubated with final concentrations of test compound for 2 hr and were then stimulated with 0.1 μg/mL of LPS (from E. Coli: O111:B4, Sigma) for 4 hr. The supernatant was collected for determination of TNFα and IL-8 concentrations by sandwich ELISA (Duo-set, R&D systems). The inhibition of TNFα production was calculated as a percentage of that achieved by 10 μg/mL of BIRB796 at each concentration of test compound by comparison against vehicle control. The relative 50% effective concentration (REC50) was determined from the resultant concentration-response curve. The inhibition of IL-8 production was calculated at each concentration of test compound by comparison with vehicle control. The 50% inhibitory concentration (IC50) was determined from the resultant concentration-response curve.

The next data set has as its target T2, p38 MAPKγ (MAPK12) (Homo sapiens, UniProt P53778).
T2 construct: purchased Invitrogen
T2 sequence (P53778 1-367): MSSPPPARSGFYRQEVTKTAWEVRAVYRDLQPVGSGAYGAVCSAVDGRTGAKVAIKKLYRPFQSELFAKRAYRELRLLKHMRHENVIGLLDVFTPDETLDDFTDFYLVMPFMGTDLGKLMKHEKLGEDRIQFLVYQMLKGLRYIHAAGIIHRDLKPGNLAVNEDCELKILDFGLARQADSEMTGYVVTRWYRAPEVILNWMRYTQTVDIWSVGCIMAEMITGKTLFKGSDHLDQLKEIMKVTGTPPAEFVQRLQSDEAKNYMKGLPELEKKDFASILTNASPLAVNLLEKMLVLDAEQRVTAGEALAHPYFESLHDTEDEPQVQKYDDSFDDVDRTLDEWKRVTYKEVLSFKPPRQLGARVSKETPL
The data set can be described thus: Enzyme inhibition assay (FRET, Z-LYTE), p38 MAPKγ. The format is biochemical. To be noted: read-out: Enzyme Inhibition IC50 p38γ. Here is the method:
as §1

Data set [6] has as its system IL-8 release in d-U937 cells. The data set can be described thus: LPS-induced IL-8 release in d-U937 cells. The format is cell-based, human. To be noted: Homo sapiens, dU937. How it is done:
as §2, §3

T1 sequence (Q16539 whole entry, canonical isoform): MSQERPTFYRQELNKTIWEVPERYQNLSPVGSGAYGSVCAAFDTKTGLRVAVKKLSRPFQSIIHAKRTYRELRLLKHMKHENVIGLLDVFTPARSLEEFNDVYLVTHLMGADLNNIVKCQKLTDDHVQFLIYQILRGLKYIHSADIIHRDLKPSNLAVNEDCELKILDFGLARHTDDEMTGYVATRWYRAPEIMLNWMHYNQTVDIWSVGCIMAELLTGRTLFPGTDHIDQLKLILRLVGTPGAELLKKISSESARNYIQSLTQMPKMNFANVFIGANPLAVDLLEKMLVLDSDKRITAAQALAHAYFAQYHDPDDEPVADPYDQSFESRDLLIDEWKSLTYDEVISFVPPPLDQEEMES

For `COCC(=O)Nc1cc(COc2ccc(NC(=O)Nc3cc(C(C)(C)C)nn3-c3ccc(OC)cc3)c3cccnc23)ccn1` [Example 17, N-(4-((5-(3-(3-tert-Butyl-1-(4-methoxyphenyl)-1H-pyrazol-5-yl)ureido)quinolin-8-yloxy)methyl)pyridin-2-yl)-2-methoxyacetamide], the IC50 is 54.2 nM in data set [1]; above 1640 nM in data set [2]; above 1640 nM in data set [3]; above 16400 nM on p38 MAPKγ (MAPK12); 17100 nM in data set [6]. Also, in data set [4], the “MTT Assay (Viability) 4 h d-U937, percentage loss of cell viability” value is −11.5%. Further, the “MTT Assay (Viability) 24 h d-U937, percentage loss of cell viability” value in data set [4] is on record as 4.0%. In data set [5], the EC50 came out at 16200 nM.
For `CNC(=O)Nc1cc(COc2ccc(NC(=O)Nc3cc(C(C)(C)C)nn3-c3ccc(OC)cc3)c(Cl)c2Cl)ccn1` [Example 18, 1-(3-tert-Butyl-1-(4-methoxyphenyl)-1H-pyrazol-5-yl)-3-(2,3-dichloro-4-((2-(3-methylureido)pyridin-4-yl)methoxy)phenyl)urea], the IC50 was 29.4 nM in data set [1]; 343 nM in data set [2]; 4.7 nM in data set [3]; above 16300 nM at p38 MAPKγ (MAPK12); 48.4 nM in data set [6]. In addition, the “MTT Assay (Viability) 4 h d-U937, percentage loss of cell viability” value in data set [4] stood at 39.5%. In addition, the “MTT Assay (Viability) 24 h d-U937, percentage loss of cell viability” value in data set [4] is −4.6%. In addition, the EC50 in data set [5] turned out to be 6.7 nM.
Take `Cc1ccc(-n2nc(C(C)(C)C)cc2NC(=O)Nc2ccc(OCc3ccnc(NC(=O)N4CCCC4)c3)c(Cl)c2Cl)cc1` [Example 19, N-(4-((4-(3-(3-tert-Butyl-1-(p-tolyl)-1H-pyrazol-5-yl)ureido)-2,3-dichlorophenoxy)methyl)pyridin-2-yl)pyrrolidine-1-carboxamide]: the IC50 in data set [1] came to 18.5 nM; in data set [2], 23.7 nM; in data set [3], 12.3 nM; on p38 MAPKγ (MAPK12), 4370 nM; in data set [6] it was 837 nM. Besides, the “MTT Assay (Viability) 4 h d-U937, percentage loss of cell viability” value in data set [4] is recorded as −13.5%. The “MTT Assay (Viability) 24 h d-U937, percentage loss of cell viability” value in data set [4] came out at 6.9%. Also, in data set [5], the EC50 was found to be 25.6 nM.
As to `COc1ccc(-n2nc(C(C)(C)C)cc2NC(=O)Nc2ccc(OCc3ccnc(NC(=O)N4CCCC4)c3)c(Cl)c2Cl)cc1` [Example 20, N-(4-((4-(3-(3-tert-Butyl-1-(4-methoxyphenyl)-1H-pyrazol-5-yl)ureido)-2,3-dichlorophenoxy)methyl)pyridin-2-yl)pyrrolidine-1-carboxamide], the IC50 in data set [1] is 30.7 nM; in data set [2] it was 16.5 nM; in data set [3], 45.2 nM; on p38 MAPKγ (MAPK12) it was above 15300 nM; in data set [6] it was 1060 nM. Further, the “MTT Assay (Viability) 4 h d-U937, percentage loss of cell viability” value in data set [4] was −19.1%. The “MTT Assay (Viability) 24 h d-U937, percentage loss of cell viability” value in data set [4] amounted to 9.6%. In addition, in data set [5], the EC50 amounted to 69.5 nM.
Turning to `CNC(=O)Nc1cc(COc2ccc(NC(=O)Nc3cc(C(C)(C)C)nn3-c3ccc(C)cc3)c3cccnc23)ccn1` [Example 21, 1-(3-tert-Butyl-1-p-tolyl-1H-pyrazol-5-yl)-3-(8-((2-(3-methylureido)pyridin-4-yl)methoxy)quinolin-5-yl)urea], the IC50 in data set [1] is 81.5 nM; in data set [2], above 1730 nM; in data set [3], 1770 nM; at p38 MAPKγ (MAPK12), above 17300 nM; in data set [6], 12900 nM. Also, in data set [4], the “MTT Assay (Viability) 4 h d-U937, percentage loss of cell viability” value amounted to 14.5%. Besides, the “MTT Assay (Viability) 24 h d-U937, percentage loss of cell viability” value in data set [4] is given as −12.0%. Moreover, the EC50 in data set [5] is 164 nM.
As to `CN(C)CCCC(=O)Nc1cc(Oc2ccc(NC(=O)Nc3cc(C(C)(C)C)nn3-c3ccc(CO)cc3)c(Cl)c2Cl)ncn1` [Example 22], the IC50 in data set [1] turned out to be 7.6 nM; in data set [2], 4.9 nM; in data set [3], 1.1 nM; at p38 MAPKγ (MAPK12) it was 20.6 nM; in data set [6], 33.8 nM. In addition, the “MTT Assay (Viability) 4 h d-U937, percentage loss of cell viability” value in data set [4] is −20.9%. Besides, in data set [4], the “MTT Assay (Viability) 24 h d-U937, percentage loss of cell viability” value came out at 85.2%. Moreover, the EC50 in data set [5] was 1.5 nM.
Regarding `COCC(=O)Nc1nccc(Oc2ccc(NC(=O)Nc3cc(C(C)(C)C)nn3-c3ccc(OC)cc3)c(Cl)c2Cl)n1` [Example 23, N-(4-(4-(3-(3-tert-Butyl-1-(4-methoxyphenyl)-1H-pyrazol-5-yl)ureido)-2,3-dichlorophenoxy)pyrimidin-2-yl)-2-methoxyacetamide], the IC50 came to 15.7 nM in data set [1]; 2 nM in data set [2]; 2.2 nM in data set [3]; 47.9 nM on p38 MAPKγ (MAPK12); 11.9 nM in data set [6]. Besides, in data set [4], the “MTT Assay (Viability) 4 h d-U937, percentage loss of cell viability” value is on record as −37.1%. For the same compound, the “MTT Assay (Viability) 24 h d-U937, percentage loss of cell viability” value in data set [4] was −24.5%. The EC50 in data set [5] was determined as 0.3 nM.
With `CNC(=O)Nc1nccc(Oc2ccc(NC(=O)Nc3cc(C(C)(C)C)nn3-c3ccc(CO)cc3)c(Cl)c2Cl)n1` [Example 25, 1-(4-(4-(3-(3-tert-Butyl-1-(4-(hydroxymethyl)phenyl)-1H-pyrazol-5-yl)ureido)-2,3-dichlorophenoxy)pyrimidin-2-yl)-3-methylurea], the IC50 in data set [1] was found to be 10.7 nM; in data set [2] it was 10.8 nM; in data set [3], 1.7 nM; at p38 MAPKγ (MAPK12), 139 nM; in data set [6] it was 2.5 nM. Also, in data set [4], the “MTT Assay (Viability) 4 h d-U937, percentage loss of cell viability” value is −3.5%. Besides, in data set [4], the “MTT Assay (Viability) 24 h d-U937, percentage loss of cell viability” value came to 58.6%. Moreover, the EC50 in data set [5] amounted to 1.2 nM.
